Structures can show the parent of a compound that is named as a salt. Marks after values point to notes of the source that are not given here.
What was measured:
[1] = target: cholinesterase D (Homo sapiens, UniProt P06276); type: biochemical; details: in vitro tests; multiple of rivastigmine
[2] = test system: cholinesterase B (Homo sapiens); assay: In vitro inhibition of cholinesterase B; type: biochemical; details: in vitro tests; multiple of rivastigmine
[3] = test system: rats with common carotid artery occlusion-induced vascular dementia; assay: Water maze test, common carotid artery occlusion-induced vascular dementia rats; type: in vivo, rat; details: for orientation angle for reaching the platform / speed for reaching the platform / swimming path length for reaching the platform / time for reaching the platform: x ± s
Description: (§1) A rat blood vessel dementia model was made according to the references [ZHAO Xian-lin, FANG Xiu-bin, LI Dong-pei. Establishment of Vascular Dementia Model in Rats, J Chin Med Univ, 2002, 31 (3): 166-168; WANG Yong-yan, Zhang Bo-li, Editor-in-chief. Modern Chinese Medicine Clinic and Research on Vascular Dementia, People's Medical Publishing House, October 2003, First Version 214]: Chloral hydrate 0.4 g/kg was intraperitoneally injected for anesthetizing rats, and bilateral common carotid arteries were isolated and ligated. The animals were fed for 16 weeks, divided into groups on the last 7 days, and administered. The normal control group and the model group were administrated through the intragastric route with distilled water by 0.5 ml/100 g, the positive control group was administrated through the intragastric route with donepezil hydrochloride by 1.75 mg/kg (equivalent to 3.85 times the clinical daily dosage of 5 mg/70 kg), the low, medium and high-dose groups of Crystal Form A of octahydroaminoacridine succinate were administrated through the intragastric route with Crystal Form A of octahydroaminoacridine succinate by 0.7, 1.4 and 2.8 mg/kg (equivalent to 0.96, 1.92 and 3.85 times the clinical daily dosage of 8 mg/70 kg). The water maze test and the step-down test were carried out after continuous administration for 7 days, and the administration was continued during the test period. The water maze test was continuously performed for 7 days, in the first 6 days, in four different water entry points of quadrants 1, 2, 3 and 4, the time, the swimming path length, the orientation angle and the average speed of the rat reaching the platform were measured, meanwhile, the strategy for reaching the platform adopted by rats was observed, on the 7th day, the platform was removed, the number of rats crossing the platform in 2 minutes, the residence time in the platform area, the residence time in the platform quadrants, the percentage of the swimming path length in the platform area quadrants to the total swimming path length, the average speed and the orientation angle were measured. After the water maze test was finished, the step-down test was performed, and the number of electric shocks (or called as the error number) received by each rat within 5 minutes was recorded as the learning performance. The test was performed again after 24 hours, namely, the memory retention test, and the latent period for stepping-down the platform for the first time and the error number in five minutes were recorded. After the step-down test was finished, the brain was taken quickly for pathological examination, and the pathological changes of the hippocampus and the cortex were observed.

[4] = test system: rats with common carotid artery occlusion-induced vascular dementia; assay: Step-down test, common carotid artery occlusion-induced vascular dementia rats; type: in vivo, rat
Description: as §1

[5] = test system: rats with beta-amyloid induced senile dementia; assay: Water maze test, beta-amyloid induced senile dementia rats; type: in vivo, rat; details: for adopted strategy for reaching the platform (the peripheral type and the random type %) / orientation angle for reaching the platform / speed for reaching the platform / swimming path length for reaching the platform / time for reaching the platform: 1.75 mg/kg intragastric; for orientation angle for reaching the platform / speed for reaching the platform / swimming path length for reaching the platform / time for reaching the platform: x ± s
[6] = test system: rats with beta-amyloid induced senile dementia; assay: Step-down test, beta-amyloid induced senile dementia rats; type: in vivo, rat; details: donepezil hydrochloride 1.75 mg/kg, P<0.05
[7] = donepezil hydrochloride 1.75 mg/kg, Day 1 to Day 6
[8] = donepezil hydrochloride 1.75 mg/kg, Day 7
[9] = donepezil hydrochloride 1.75 mg/kg, Day 7, P<0.05
[10] = donepezil hydrochloride 1.75 mg/kg, P<0.05 or P<0.01
[11] = donepezil hydrochloride 1.75 mg/kg, Day 2, P<0.05
[12] = step-down method, 1.75 mg/kg intragastric, x ± s

Sequence of cholinesterase D (P06276 29-602): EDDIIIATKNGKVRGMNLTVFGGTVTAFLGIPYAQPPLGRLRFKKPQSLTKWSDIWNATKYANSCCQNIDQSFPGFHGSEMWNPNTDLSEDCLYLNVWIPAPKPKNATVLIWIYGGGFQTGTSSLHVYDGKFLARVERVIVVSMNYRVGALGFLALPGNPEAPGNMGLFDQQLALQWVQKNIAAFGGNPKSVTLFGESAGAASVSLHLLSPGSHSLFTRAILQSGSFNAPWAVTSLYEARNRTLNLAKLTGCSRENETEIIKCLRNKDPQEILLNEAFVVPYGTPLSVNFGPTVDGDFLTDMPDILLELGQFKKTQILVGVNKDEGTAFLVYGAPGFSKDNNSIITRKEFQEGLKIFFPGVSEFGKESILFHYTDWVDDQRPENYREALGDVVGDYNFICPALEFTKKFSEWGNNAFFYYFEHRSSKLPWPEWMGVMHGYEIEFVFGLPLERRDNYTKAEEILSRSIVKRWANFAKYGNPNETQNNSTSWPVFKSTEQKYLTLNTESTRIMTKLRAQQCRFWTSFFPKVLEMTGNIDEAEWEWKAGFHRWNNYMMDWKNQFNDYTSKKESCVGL
Sequence of cholinesterase B (Homo sapiens) (P22303 32-614): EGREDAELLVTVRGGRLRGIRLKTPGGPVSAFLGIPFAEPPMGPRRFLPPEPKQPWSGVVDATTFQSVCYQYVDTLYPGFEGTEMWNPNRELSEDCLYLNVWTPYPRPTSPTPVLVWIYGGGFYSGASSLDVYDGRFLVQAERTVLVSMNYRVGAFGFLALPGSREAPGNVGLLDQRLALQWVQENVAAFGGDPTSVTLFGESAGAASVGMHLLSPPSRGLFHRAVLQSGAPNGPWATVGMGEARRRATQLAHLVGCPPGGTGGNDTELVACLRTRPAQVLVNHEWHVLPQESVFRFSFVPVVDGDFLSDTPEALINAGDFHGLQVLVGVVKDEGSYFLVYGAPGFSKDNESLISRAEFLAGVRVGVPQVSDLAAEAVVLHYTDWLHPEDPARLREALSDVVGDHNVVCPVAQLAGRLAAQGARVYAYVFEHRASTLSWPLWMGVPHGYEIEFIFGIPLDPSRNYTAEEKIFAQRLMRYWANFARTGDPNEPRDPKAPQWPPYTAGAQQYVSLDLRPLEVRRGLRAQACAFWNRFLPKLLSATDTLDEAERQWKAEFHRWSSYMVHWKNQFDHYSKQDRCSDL

## Nc1c2c(nc3c1CCCC3)CCCC2.O=C(O)CCC(=O)O [octahydroaminoacridine succinate, 9-amino-1,2,3,4,5,6,7,8-octahydroacridine succinate]
[1]
  inhibiting ability to cholinesterase D relative to rivastigmine: 2000 times
[2]
  inhibiting ability to cholinesterase B relative to rivastigmine: 500 times

## COc1cc2c(cc1OC)C(=O)C(CC1CCN(Cc3ccccc3)CC1)C2 (centres unmarked) [Positive control group, donepezil hydrochloride]
[3]; Day 1, 1.75 mg/kg intragastric
  adopted strategy for reaching the platform (the peripheral type and the random type %): 65.00* %
  orientation angle for reaching the platform: 58.85 ± 15.35 °
  speed for reaching the platform: 21.15 ± 5.56 cm/s
  swimming path length for reaching the platform: 1105.00 ± 578.29 cm
  time for reaching the platform: 58.42 ± 23.42 s
[3]; Day 2, 1.75 mg/kg intragastric
  adopted strategy for reaching the platform (the peripheral type and the random type %): 62.50%
  orientation angle for reaching the platform: 61.54 ± 17.41 °
  speed for reaching the platform: 22.68 ± 5.82 cm/s
  swimming path length for reaching the platform: 579.08 ± 316.12 cm
  time for reaching the platform: 33.96 ± 17.06 s
[3]; Day 3, 1.75 mg/kg intragastric
  adopted strategy for reaching the platform (the peripheral type and the random type %): 62.50* %
  orientation angle for reaching the platform: 48.94 ± 13.42 °
  speed for reaching the platform: 21.19 ± 3.15 cm/s
  swimming path length for reaching the platform: 606.25 ± 279.18 cm
  time for reaching the platform: 30.17 ± 14.50 s
[3]; Day 4, 1.75 mg/kg intragastric
  adopted strategy for reaching the platform (the peripheral type and the random type %): 67.50%
  orientation angle for reaching the platform: 58.94 ± 22.56 °
  speed for reaching the platform: 25.79 ± 9.79 cm/s
  swimming path length for reaching the platform: 615.78 ± 385.17 cm
  time for reaching the platform: 23.92 ± 12.45 s
[3]; Day 5, 1.75 mg/kg intragastric
  adopted strategy for reaching the platform (the peripheral type and the random type %): 50.00%
  orientation angle for reaching the platform: 49.64 ± 17.65 °
  speed for reaching the platform: 24.88 ± 8.76 cm/s
  swimming path length for reaching the platform: 586.80 ± 405.09 cm
  time for reaching the platform: 21.94 ± 11.16 s
[3]; Day 6, 1.75 mg/kg intragastric
  adopted strategy for reaching the platform (the peripheral type and the random type %): 47.50** %
  orientation angle for reaching the platform: 53.54 ± 19.68 °
  speed for reaching the platform: 21.02 ± 6.67 cm/s
  swimming path length for reaching the platform: 348.06 ± 202.65 cm
  time for reaching the platform: 17.87 ± 12.66 s
[3]; Day 7, 1.75 mg/kg intragastric
  Average speed: 24.60 ± 10.18 cm/s
  Number of crossing the platform: 9.40 ± 5.16
  Orientation angle: 9.40 ± 5.17 °
  Swimming path length in the platform area/total swimming path length × 100%: 33.02 ± 9.98%
  Time in the platform area: 3.06 ± 2.24 s
  Time in the platform quadrants: 42.21 ± 12.71 s
[3]; [7]
  orientation angle and swimming speed vs model group: not obviously changed
[3]; donepezil hydrochloride 1.75 mg/kg, Day 2, Day 3 and Day 6, P<0.05
  swimming path length for reaching the platform vs model group: obviously shortened
[3]; donepezil hydrochloride 1.75 mg/kg, Day 5 and Day 6, P<0.05 or P<0.01
  latent period for reaching the platform vs model group: obviously shortened
[3]; [8]
  average speed and orientation angle vs model group: not obviously changed
[3]; [9]
  residence time in the platform quadrants within 2 minutes vs model group: obviously increased
[3]; donepezil hydrochloride 1.75 mg/kg, Day 7, no statistical significance
  number of crossing the platform, residence time in the platform area, and percentage of the swimming path length in the platform area quadrants to the total swimming path length vs model group: increased trend
[3]; [10]
  conversion from the peripheral type or the random type to the tendency type or the linear type in the strategy for looking for the platform: obviously increased
[4]; donepezil hydrochloride 1.75 mg/kg, Day 1 and Day 2, P<0.05
  step-down error number vs model group: obviously reduced
[4]; [11]
  error latency vs model group: obviously prolonged
[4]; [12]
  Day 1, Error number: 5.40 ± 3.06
  Day 2, Error latency: 244.10 ± 77.83 s
  Day 2, Error number: 1.10 ± 1.28
[5]; Day 1
  adopted strategy for reaching the platform (the peripheral type and the random type %): 97.50%
  orientation angle for reaching the platform: 75.41 ± 22.31 °
  speed for reaching the platform: 16.03 ± 4.22 cm/s
  swimming path length for reaching the platform: 1029.43 ± 453.12 cm
  time for reaching the platform: 72.43 ± 30.97 s
[5]; Day 2
  adopted strategy for reaching the platform (the peripheral type and the random type %): 75.00%
  orientation angle for reaching the platform: 50.14 ± 23.02 °
  speed for reaching the platform: 20.78 ± 5.83 cm/s
  swimming path length for reaching the platform: 762.34 ± 562.06 cm
  time for reaching the platform: 38.98 ± 33.812 s
[5]; Day 3
  adopted strategy for reaching the platform (the peripheral type and the random type %): 77.50%
  orientation angle for reaching the platform: 52.85 ± 27.04 °
  speed for reaching the platform: 19.15 ± 4.64 cm/s
  swimming path length for reaching the platform: 572.83 ± 576.82 cm
  time for reaching the platform: 34.41 ± 37.35 s
[5]; Day 4
  adopted strategy for reaching the platform (the peripheral type and the random type %): 62.50** %
  orientation angle for reaching the platform: 46.37 ± 17.86 °
  speed for reaching the platform: 22.07 ± 8.05 cm/s
  swimming path length for reaching the platform: 312.04 ± 316.86 cm
  time for reaching the platform: 29.32 ± 39.89 s
[5]; Day 5
  adopted strategy for reaching the platform (the peripheral type and the random type %): 67.50** %
  orientation angle for reaching the platform: 50.54 ± 24.98 °
  speed for reaching the platform: 19.67 ± 3.94 cm/s
  swimming path length for reaching the platform: 495.72 ± 380.99 cm
  time for reaching the platform: 29.16 ± 24.95 s
[5]; Day 6
  adopted strategy for reaching the platform (the peripheral type and the random type %): 62.50* %
  orientation angle for reaching the platform: 44.21 ± 34.00 °
  speed for reaching the platform: 18.28 ± 5.12 cm/s
  swimming path length for reaching the platform: 413.33 ± 483.35 cm
  time for reaching the platform: 28.99 ± 35.61 s
[5]; [7]
  swimming speed vs model group: not obviously changed
[5]; donepezil hydrochloride 1.75 mg/kg, Day 1 to Day 6, no statistical significance
  latent period for reaching the platform vs model group: shortened trend
[5]; [11]
  orientation angle vs model group: obviously decreased
[5]; donepezil hydrochloride 1.75 mg/kg, Day 4, P<0.05
  swimming path length for reaching the platform vs model group: obviously shortened
[5]; [8]
  average speed and orientation angle vs model group: not obviously changed
[5]; [9]
  number of crossing the platform vs model group: obviously increased
  percentage of the swimming path length in the platform area quadrants to the total swimming path length vs model group: obviously increased
  residence time in the platform area vs model group: obviously increased
  residence time in the platform quadrants within 2 minutes vs model group: obviously increased
[5]; [10]
  conversion from the peripheral type and the random type to the tendency type and the linear type in the strategy for looking for the platform: obviously increased
[6]; Day 1 and Day 2
  step-down error number vs model group: obviously reduced
[6]; Day 2
  error latency vs model group: obviously prolonged

— patent publication US12215085B2 (priority 2019, dated 2025)
